{
  "source": "patent US20260306633A1",
  "about": "“A COMBINATION THERAPY FOR CANCER TREATMENT” (Purdue Research Foundation, priority 2023, published 2026)",
  "key": {"TNBC BT-549 cells": {"tested_on": "TNBC BT-549 cells", "experiment": "Cell survival / cell inhibition (MTT cell cytotoxicity assay) after 24 h treatment with photosensitizer and/or chemotherapeutic agent, dark or light-irradiated", "format": "cell-based, human", "protocol": "Human mammary epithelial carcinoma cell lines purchased from the American Type Culture Collection BT-549 (ATCC HTB-122) were cultured according to ATCC protocol. BT-549 cells were grown in RPMI 1640 containing 0.023 IU/mL insulin and supplemented with 10% fetal bovine serum (FBS). Cells were grown to 80-90% confluence in 75-cm^2 culture flasks (Corning) for 4-5 days in a humidified incubator (Fisher Scientific Isotemp) with 5% CO2 at 37° C. During the incubation period, growth media was changed once with fresh pre-warmed media (pH 7.2). To harvest the cells, old growth media was aspirated out, and 3 mL 0.25% trypsin solution (Thermo Sci Hyclone) were added. The cells were incubated for 5 minutes, and the cell pellet after centrifugation was resuspended in 3 mL media, broken up gently, then 1 mL of suspended cells was transferred into a new T75 cell culture flask containing pre-warmed media (20 mL) for further culturing.\n(§1) Cells were grown to confluence in a 96-well plate (9×10^3 cells/well) and co-treated for 24 hours with synthesized photosensitizers (PSs) and chemotherapeutic agents of varying concentrations ranging from 5 nM to 50 μM) in growth media from a stock solution of 10 mM in DMSO (dimethyl sulfoxide, Fisher). After 24-hour treatment, old growth media containing the PSs or compounds were aspirated out and replaced with fresh media. Plates were then positioned below a non-coherent LumaCare LC-122 650 nm light source for 1 minute at an energy fluence rate of 0.96 J/cm^2 and a power of 16 mW/cm^2 (measured using a Newport optical power meter Model 840). Unirradiated cells served as control samples. The following day, cells were washed with pre-warmed PBS, and 11MTT (3-[4,5-dimethyl-thiazol-2-yl]-2.5-diphenyltetrazolium bromide, Sigma, 0.3 mg/mL) in PBS was added to each well. Samples were allowed to incubate for additional 2 hours, after which dark blue crystals formed. DMSO was added to each well and plates were shaken at room temperature for 1 hour to dissolve the purplish-blue formazan crystals. Absorbance values at 570 nm were measured on a microplate reader (BioRad 550). Cell survival was calculated based on the absorbance of the untreated cells alone (as control) and were directly proportional to the number of viable cells in culture. Results were reported as the mean±SD of triplicate measurements.\nThe unmetallated PS and the indium complexes were used.\nLight dose corresponds to an energy fluence rate of 0.96 J/cm^2 used.\nPower of 16 mW/cm^2 used.\nCell inhibition in TNBC cells is based on the cell survival (MTT) assay of the binary therapy, blending the effect of PDT and chemotherapeutic agents. […] MePheo serves as a control compound. TNBC cells were then exposed to light after binary treatment for 24 hours."}, "TNBC cells [1]": {"tested_on": "TNBC cells", "experiment": "Combination index (CI) of binary therapy, Chou-Talalay method, CompuSyn software", "format": "cell-based, human", "protocol": "(§2) The calculated CI values are based on 50 nM concentration for the PSs, 50 nM paclitaxel, 500 nM doxorubicin, 25 μM cisplatin, 25 μM fluorouracil, and 500 nM methotrexate.\nas §1\nThe combination index (CI) for the binary treatment of TNBC cells with a PS and a chemotherapeutic drug was calculated based on the Chou-Talalay method using CompuSyn software. […] The unified dynamics algorithm uses a minimum of dose-data points to fit the general MAL theory.\nas §2"}, "human TNBC BT-549 cells": {"tested_on": "human TNBC BT-549 cells", "experiment": "Fluorescence microscopy (Hoechst 33258) of cell morphology / cell death pathway", "format": "cell-based", "protocol": "Grayscale images of cells stained with Hoechst 33258. Morphology of (A) untreated unirradiated cells, sham control; (B) illuminated cells; (C-E) cells treated with: PSs (InCLA, CBTN, and CPA) and paclitaxel in the dark; (F-H) PSs, followed by 1 minute light exposure; (I) paclitaxel unirradiated; (J-L) PSs and paclitaxel in the dark; (M-O) PSs co-treated with paclitaxel, then light-exposed; (P-Q) PSs co-treated with doxorubicin, then irradiated; (R) PSs and cisplatin, dark; (S-T) PSs and cisplatin, irradiated; (U) fluorouracil, dark; (V) InCLA with fluorouracil in the dark; (W) light-exposed and, (X-Y) PSs with methotrexate with light. Inserts indicate enlarged view. […] Light dose in 1 minute=0.96 J cm^−2; in 30 seconds=0.48 J cm^−2. Concentrations: PSs=50 nM; paclitaxel=50 nM; doxorubicin=500 nM; cisplatin=25 μM; fluororuracil=25 μM; and, methotrexate=500 nM.\nCells (1 mL aliquots) obtained from a diluted cell suspension were seeded into each well (1.7 cm^2, 8×10^3 cells/well) of a 4-well culture slide (BD Biosciences) and grown to confluence in 5% CO2 at 37° C. for 3-4 days for attachment to the substratum. After aspirating the old growth media, 1 mL of the photosensitizer and chemotherapeutic agents (with appropriate concentrations) in fresh pre-warmed media at 37° C. was added to each well. After compound treatment for 24 hours, cells were washed twice with 1 mL fresh growth media, and then irradiated with light using LumaCare LC-122 as described above. Cells were stained in the dark with Hoechst 33258 (Molecular Probes) in pre-warmed media for 10 minutes at 37° C., washed twice with filtered PBS, then fixed with filtered paraformaldehyde for 15 minutes in the incubator. After thorough liquid aspiration, the wells were removed and allowed to air dry in the dark for 1 hour. Slides were protected with coverslips, whose edges were sealed using clear fast-drying nail polish and allowed to dry at room temperature in the dark for 30 minutes. Images were recorded using fluorescence microscopy (DAPI for Hoechst 350-390 nm excitation and 460-490 nm emission filters) using an upright fluorescence microscope with Retiga imaging 2000R (Nikon Optiphot-2, 20× and 40×) and an image processing Nikon NIS-Elements V4.0 Qimaging software.\nTo determine the preferred cell death pathway for the binary chemophotodynamic therapy, tracking the hallmarks of apoptosis or necrosis was accomplished using a nuclear stain to monitor chromatin condensation and cellular contraction. TNBC cells are spindle-shaped and nearly round with intact cytoplasm, diffused chromatin, distinct cellular membrane, and large oval nuclei staining dark blue with the nuclear stain (FIG. 18A-B)."}, "TNBC cells [2]": {"tested_on": "TNBC cells", "experiment": "Combination index (CI) of binary therapy, Chou-Talalay method, CompuSyn software", "format": "cell-based, human", "conditions": "PS 50 nM + methotrexate 500 μM (footnote 500 nM)"}, "[3]": {"conditions": "PS 100 nM + fluorouracil 25 μM, light"}},
  "note": "Values joined by “and” are separate entries in the source; they are usually repeats but may differ in a detail not shown here. Identical values can stand only once. “Also recorded” adds a separate entry of the source.",
  "data": [
    {"smiles": "C=Cc1c(C)c2cc3nc(c(CC(=O)OC)c4[nH]c(cc5nc(cc1[nH]2)C(C)=C5CC)c(C)c4C(=O)NCCCCCCNC(=O)CCCCC1SCC2NC(=O)NC21)C(CCC(=O)OC)C3C", "note": "(stereo not shown) [CBTN, chlorin biotin conjugate]", "values": [
      {"measurement": "cell inhibition (%), combination with cisplatin", "setting": "TNBC BT-549 cells; PS 100 nM + cisplatin 25 μM, 24 h, light 0.96 J cm−2", "value": 53, "unit": "%"},
      {"measurement": "effect of added cisplatin compared to cisplatin-treated cell viability", "setting": "TNBC BT-549 cells; PS 100 nM + cisplatin 25 μM, light", "value": "reduced cell survival"},
      {"measurement": "cell survival, co-treatment with doxorubicin in the dark", "setting": "TNBC BT-549 cells; PS 100 nM + doxorubicin 500 nM, 24 h, dark", "value": 51, "unit": "%"},
      {"measurement": "cell inhibition (%), combination with doxorubicin", "setting": "TNBC BT-549 cells; PS 100 nM + doxorubicin 500 nM, 24 h, light 0.96 J cm−2", "value": 64, "unit": "%"},
      {"measurement": "cell survival, co-treatment with doxorubicin upon light", "setting": "TNBC BT-549 cells; PS 100 nM + doxorubicin 500 nM, light, 1440 min, 0.1 µM", "value": "35% and 36%"},
      {"measurement": "best combination partner", "setting": "TNBC BT-549 cells; PS 100 nM + drug, light", "value": "with paclitaxel followed by doxorubicin or fluorouracil; also recorded: with paclitaxel, followed by doxorubicin or fluorouracil"},
      {"measurement": "cell inhibition (%), combination with fluorouracil", "setting": "TNBC BT-549 cells; PS 100 nM + fluorouracil 25 μM, 24 h, light 0.96 J cm−2", "value": 64, "unit": "%"},
      {"measurement": "cell viability reduction (difference) vs PS alone", "setting": "TNBC BT-549 cells; [3]", "value": 46, "unit": "%"},
      {"measurement": "effect of added fluorouracil compared to fluorouracil-treated cell viability", "setting": "TNBC BT-549 cells; [3]", "value": "reduced cell survival"},
      {"measurement": "cell survival, co-treatment with fluorouracil upon light", "setting": "TNBC BT-549 cells; PS 100 nM + fluorouracil 25 μM, light, 1440 min", "value": 36, "unit": "%"},
      {"measurement": "cell survival, co-treatment with methotrexate in the dark", "setting": "TNBC BT-549 cells; PS 100 nM + methotrexate 500 nM, 24 h, dark", "value": 85, "unit": "%"},
      {"measurement": "cell inhibition (%), combination with methotrexate", "setting": "TNBC BT-549 cells; PS 100 nM + methotrexate 500 nM, 24 h, light 0.96 J cm−2", "value": 42, "unit": "%"},
      {"measurement": "cell inhibition (%), combination with paclitaxel", "setting": "TNBC BT-549 cells; PS 100 nM + paclitaxel 50 nM, 24 h, light 0.96 J cm−2", "value": 65, "unit": "%"},
      {"measurement": "cell survival, co-treatment with paclitaxel upon light", "setting": "TNBC BT-549 cells; PS 100 nM + paclitaxel 50 nM, light, 1440 min", "value": 35, "unit": "%"},
      {"measurement": "chemophotodynamic potency against TNBC cells, summary", "setting": "TNBC BT-549 cells; PS 100 nM alone or in combination, light", "value": "better activity against TNBC cells than the starting compound MePheo"},
      {"measurement": "cell survival, PS alone", "setting": "TNBC BT-549 cells; PS 100 nM, light 0.96 J/cm^2, 1440 min, 0.1 µM", "value": "82% and 81%"},
      {"measurement": "cytotoxicity in the absence of light, PS alone", "setting": "TNBC BT-549 cells; PS 500 nM, dark", "value": "No cytotoxicity"},
      {"measurement": "combination therapy vs monotherapy (doxorubicin)", "setting": "TNBC BT-549 cells; PS + doxorubicin, light", "value": "better photodynamic effect when co-treated with doxorubicin than PS-treatment alone"},
      {"measurement": "combination therapy vs monotherapy (fluorouracil)", "setting": "TNBC BT-549 cells; PS + fluorouracil, light", "value": "best compared to monotherapy alone and with the other PSs used"},
      {"measurement": "cell viability reduction (difference) vs PS alone", "setting": "TNBC BT-549 cells; PS at lower concentration (CPA: 50 nM) + methotrexate 500 nM, light", "value": 10, "unit": "%"},
      {"measurement": "combination index (CI) with cisplatin", "setting": "TNBC cells [1]; PS 50 nM + cisplatin 25 μM", "value": 0.99},
      {"measurement": "synergism vs additive vs antagonism effect with cisplatin", "setting": "TNBC cells [1]; PS 50 nM + cisplatin 25 μM", "value": "(NA) (NA (0.9-1.10), nearly additive)"},
      {"measurement": "combination index (CI) with doxorubicin", "setting": "TNBC cells [1]; PS 50 nM + doxorubicin 500 nM", "value": 2.44},
      {"measurement": "synergism vs additive vs antagonism effect with doxorubicin", "setting": "TNBC cells [1]; PS 50 nM + doxorubicin 500 nM", "value": "(A) (A (1.45-3.3), antagonism)"},
      {"measurement": "ranking of combination partners based on CI, decreasing order", "setting": "TNBC cells [1]; PS 50 nM + drug", "value": "fluorouracil>paclitaxel>cisplatin"},
      {"measurement": "combination index (CI) with fluorouracil", "setting": "TNBC cells [1]; PS 50 nM + fluorouracil 25 μM", "value": 0.48},
      {"measurement": "synergism vs additive vs antagonism effect with fluorouracil", "setting": "TNBC cells [1]; PS 50 nM + fluorouracil 25 μM", "value": "(S) (S (0.3-0.7), synergism)"},
      {"measurement": "combination index (CI) with paclitaxel", "setting": "TNBC cells [1]; PS 50 nM + paclitaxel 50 nM", "value": 0.74},
      {"measurement": "synergism vs additive vs antagonism effect with paclitaxel", "setting": "TNBC cells [1]; PS 50 nM + paclitaxel 50 nM", "value": "(MS) (MS (0.7-0.85), moderate synergism)"},
      {"measurement": "cell morphology, PS co-treated with cisplatin, light", "setting": "human TNBC BT-549 cells; PS 50 nM + cisplatin 25 μM, light 0.48 J/cm^2 (FIG. 18S-T)", "value": "a significant number of shrunk cells and chromatin condensation can be seen"},
      {"measurement": "cell morphology, PS co-treated with doxorubicin", "setting": "human TNBC BT-549 cells; PS 50 nM + doxorubicin 500 nM, irradiated", "value": "No significant difference"},
      {"measurement": "cell morphology, PS co-treated with methotrexate, light", "setting": "human TNBC BT-549 cells; PS 50 nM + methotrexate 500 nM, light (FIG. 18X-Y)", "value": "Very few cells exhibit chromatin condensation"},
      {"measurement": "cell morphology, PS co-treated with paclitaxel", "setting": "human TNBC BT-549 cells; PS 50 nM + paclitaxel 50 nM, light (FIG. 18M-O)", "value": "shrunk cells and chromatin fragmentation are evident"},
      {"measurement": "cell morphology, PS-treated then light", "setting": "human TNBC BT-549 cells; PS 50 nM, 24 h, light (FIG. 18F-H)", "value": "not as obvious"},
      {"measurement": "preferred mode of cell death", "setting": "human TNBC BT-549 cells; PS co-treated with paclitaxel or cisplatin", "value": "apoptosis"},
      {"measurement": "combination index (CI) with methotrexate", "setting": "TNBC cells [2]", "value": 1.57},
      {"measurement": "synergism vs additive vs antagonism effect with methotrexate", "setting": "TNBC cells [2]", "value": "(A) (A (1.45-3.3), antagonism)"}
    ]}
  ]
}
